Experimental data reported in patent US12648921B2, “Capric acid and myristic acid compositions for treating conditions” (The Cleveland Clinic Foundation, priority 2016, dated 2026).

Tested on: house dust mite (D. Pteronyssinus) extract (HDME) sensitized and challenged mice
Experiment: Airway hyper-reactivity and lung mechanics in house dust mite extract sensitized mice fed purified MCF diets
Type: in vivo
Conditions: mice fed purified MCF diet, 100 mg/day (4 g/kg body weight); for overall airway constriction (Rrs) induced by increasing dose of methacholine: FIG. 1, from six weeks before HDME sensitization; for ability of the lungs to stretch (Crs, lung compliance) in response to increasing dose of methacholine: FIG. 2; for stiffness of the lungs (Ers) in response to increasing dose of methacholine: FIG. 3; for amount of forcefully exhaled air (FEV) in response to increasing dose of methacholine: FIG. 4
Procedure: Mice were fed with standard, coconut oil or MCF supplemented diets starting six weeks before allergen sensitization. Isofluorane anesthetized mice received 100 ug house dust mite (D. Pteronyssinus) extract (HDME) (Greer Labs, NC) in […] by nasal aspiration. Five days later mice were challenged daily with 10 ug HDME for 5 days. Three days, after the last HDME exposure, airway hyper-reactivity is measured and lungs collected for analysis. The diets were 15 kcal % fat at a dose of 21 g coconut oil or purified MCF per kg diet. Based on the daily food intake of 4.75 g/day/25 g mouse, each mouse consumes 100 mg of coconut oil or MCF per day. The results of this examples are shown in FIGS. 1-4, which show the results with the mice treated with the various fatty acids, which are present mainly as triglycerides in coconut oil.

SMILES | overall airway constriction (Rrs) induced by increasing dose of methacholine | ability of the lungs to stretch (Crs, lung compliance) in response to increasing dose of methacholine | stiffness of the lungs (Ers) in response to increasing dose of methacholine | amount of forcefully exhaled air (FEV) in response to increasing dose of methacholine
CCCCCCCCCC(=O)O [C10, capric acid] | inhibited | improved | decreased | increased
CCCCCCCCCCCCCC(=O)O [C14, myristic acid] | inhibited | improved | decreased | increased
